Test results reported in patent US11517628B2, “Particles for spatiotemporal release of agents” (Yale University, priority 2018, dated 2022).

Tested on: bone marrow-derived dendritic cells (BMDCs)
Test: BMDC surface marker expression by FACS
Assay type: cell-based, mouse
Description: Bone marrow-derived dendritic cells (BMDCs) were generated as described by Zanoni et al. Generation of mouse bone marrow-derived dendritic cells (BM-DCs) (2009). Briefly, bone marrow progenitor cells were isolated from the femur of C57BL/6J mouse and cultured with media containing 20 ng/ml of GM-CSF. Cells were replenished with fresh media after 5 days of culture and collected after 48 hours of media replenishment. Naïve CD4 T cells and T cells were collected from OT-II splenocytes by using naïve CD4 T cell or CD3 T cell isolation kit (STEMCELL Technologies), respectively.
When ready for flow cytometry (FACS) analysis, cells were transferred to a 96-well U-bottom plate and spun at 500 g for 5 minutes. […]
FACS was performed by either LSR-II (Becton Dickinson) or Attune NxT flow cytometer. […] All FACS data was analyzed on FlowJo software (Tree Star Inc., Ashland, Oreg.).
DCs are one of the best antigen presenting cells that express costimulatory molecules and present antigens, which are modulated by mTOR signaling and antigen processing, respectively. […] DCs from the bone marrow (BMDCs) were harvested and treated with 100 ng/ml of free RAPA or 2 μg/ml of free OVA for either 72 hours or for 24 hours and analyzed by FACS. In all following experiments, BMDCs were gated on CD11c+, live cells, and surface markers of BMDCs were analyzed by flow cytometry. […]

CO[C@H]1C[C@@H]2CC[C@@H](C)[C@@](O)(O2)C(=O)C(=O)N2CCCC[C@H]2C(=O)O[C@H]([C@H](C)C[C@@H]2CC[C@@H](O)[C@H](OC)C2)CC(=O)[C@H](C)/C=C(\C)[C@@H](O)[C@@H](OC)C(=O)[C@H](C)C[C@H](C)/C=C/C=C/C=C/1C [free RAPA, Rapamycin]
Expression of surface markers PD-L1, CD80, CD86, and MHC II (free RAPA 100 ng/ml, 72 hours compared to 24 hours): diminished expression of surface markers

B1: free OVA: Ovalbumin, the model antigen, given soluble (protein, UniProt P01012 2-386, looked up)
Ovalbumin: GSIGAASMEFCFDVFKELKVHHANENIFYCPIAIMSALAMVYLGAKDSTRTQINKVVRFDKLPGFGDSIEAQCGTSVNVHSSLRDILNQITKPNDVYSFSLASRLYAEERYPILPEYLQCVKELYRGGLEPINFQTAADQARELINSWVESQTNGIIRNVLQPSSVDSQTAMVLVNAIVFKGLWEKAFKDEDTQAMPFRVTEQESKPVQMMYQIGLFRVASMASEKMKILELPFASGTMSMLVLLPDEVSGLEQLESIINFEKLTEWTSSNVMEERKIKVYLPRMKMEEKYNLTSVLMAMGITDVFSSSANLSGISSAESLKISQAVHAAHAEINEAGREVVGSAEAGVDAASVSEEFRADHPFLFCIKHIATNAVLFFGRCVSP
Expression of surface markers PD-L1, CD80, CD86, and MHC II (free OVA 2 μg/ml, 72 hours vs 24 hours): no differences were observed
